From patent US20230123334A1, “AMINO LIPID COMPOUND, PREPARATION METHOD THEREFOR, AND APPLICATION THEREOF” (SHENZHEN SHENXIN BIOTECHNOLOGY CO., LTD., priority 2020, published 2023)

Legend:
HEK293 cells [1] = assay: Preliminary screening as DNA vectors, GFP transfection of HEK293 cells; format: cell-based; conditions: HEK293 cells; lipid/DOPE liposome with 75 ng plasmid DNA (psin-EGFP-IRES-Puro); number of cells expressing GFP divided by total number of nuclei (Hoechst)
In short: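 HEK293 cells in DMEM/10% FBS transfected with 75 ng EGFP plasmid per well complexed with amino lipid/DOPE liposomes in pH 5.6 sodium acetate. Hoechst nuclear stain added 20-24 h post-transfection, then cells cultured another 20-24 h. Confocal imaging gives GFP-positive cells as % of total nuclei.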

HEK293 cells [2] = assay: Preliminary screening as mRNA vectors, EGFP mRNA transfection of HEK293 cells; format: cell-based; conditions: HEK293 cells, 96-well plates, EGFP mRNA 50 ng per well; percentage of GFP fluorescent cells relative to total number of cells (Hoechst)
In short: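 HEK293 cells in DMEM plus 10% FBS transfected in 96-well format with 50 ng EGFP mRNA per well; Lipofectamine2000 served as positive control. Read-out is the percentage of GFP-fluorescent cells among total cells, counted by Hoechst nuclear stain.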

Structure (SMILES): CCCCCCCCCCCCCCCCNc1nc(NCCCCCCCCCCCCCCC)nc(NCCN2CCN(C)CC2)n1 [Compound N15N16D5]
- Absolute DNA transfection efficiency in HEK293 cells (HEK293 cells [1]): 0.7%
- Absolute mRNA transfection efficiency in HEK293 cells (HEK293 cells [2]): 0.0%

Structure (SMILES): CCCCCCCCCCCCCCCCNc1nc(NCCCCCCCCCCCCCCC)nc(NCCCN(C)C)n1 [Compound N15N16D6]
- Absolute DNA transfection efficiency in HEK293 cells (HEK293 cells [1]): 0.8%
- Absolute mRNA transfection efficiency in HEK293 cells (HEK293 cells [2]): 1.3%

Structure (SMILES): CCCCCCCCCCCCCCCCNc1nc(NCCCCCCCCCCCCCCC)nc(NCCN(CC)CC)n1 [Compound N15N16D7]
- Absolute DNA transfection efficiency in HEK293 cells (HEK293 cells [1]): 0.9%
- Absolute mRNA transfection efficiency in HEK293 cells (HEK293 cells [2]): 0.0%

Structure (SMILES): CCCCCCCCCCCCCCCCNc1nc(NCCCCCCCCCCCCCCC)nc(NCCCN2CCOCC2)n1 [Compound N15N16D8]
- Absolute DNA transfection efficiency in HEK293 cells (HEK293 cells [1]): 0.0%
- Absolute mRNA transfection efficiency in HEK293 cells (HEK293 cells [2]): 0.0%

Structure (SMILES): CCCCCCCCCCCCCCCCNc1nc(NCCCCCCCCCCCCCCC)nc(NCCCN2CCN(C)CC2)n1 [Compound N15N16D9]
- Absolute DNA transfection efficiency in HEK293 cells (HEK293 cells [1]): 2.1%
- Absolute mRNA transfection efficiency in HEK293 cells (HEK293 cells [2]): 1.7%

Structure (SMILES): CCCCCCCCCCCCCCCCNc1nc(NCCCCCCCCCCCCCCC)nc(NCC2CCN(C)CC2)n1 [Compound N15N16D10]
- Absolute DNA transfection efficiency in HEK293 cells (HEK293 cells [1]): 1.5%
- Absolute mRNA transfection efficiency in HEK293 cells (HEK293 cells [2]): 0.0%

Structure (SMILES): CCCCCCCCCCCCCCCCCCNc1nc(NCCCCCCCCCCCCCCC)nc(NCCN(C)C)n1 [Compound N15N18D1]
- Absolute DNA transfection efficiency in HEK293 cells (HEK293 cells [1]): 0.0%
- Absolute mRNA transfection efficiency in HEK293 cells (HEK293 cells [2]): 0.0%

Structure (SMILES): CCCCCCCCCCCCCCCCCCNc1nc(NCCCCCCCCCCCCCCC)nc(NCCN2CCOCC2)n1 [Compound N15N18D2]
- Absolute DNA transfection efficiency in HEK293 cells (HEK293 cells [1]): 0.0%
- Absolute mRNA transfection efficiency in HEK293 cells (HEK293 cells [2]): 0.0%

Structure (SMILES): CCCCCCCCCCCCCCCCCCNc1nc(NCCCCCCCCCCCCCCC)nc(NCCN2CCCC2)n1 [Compound N15N18D3]
- Absolute DNA transfection efficiency in HEK293 cells (HEK293 cells [1]): 3.0%
- Absolute mRNA transfection efficiency in HEK293 cells (HEK293 cells [2]): 8.6%

Structure (SMILES): CCCCCCCCCCCCCCCCCCNc1nc(NCCCCCCCCCCCCCCC)nc(NCCN2CCCCC2)n1 [Compound N15N18D4]
- Absolute DNA transfection efficiency in HEK293 cells (HEK293 cells [1]): 1.6%
- Absolute mRNA transfection efficiency in HEK293 cells (HEK293 cells [2]): 1.9%

Structure (SMILES): CCCCCCCCCCCCCCCCCCNc1nc(NCCCCCCCCCCCCCCC)nc(NCCN2CCN(C)CC2)n1 [Compound N15N18D5]
- Absolute DNA transfection efficiency in HEK293 cells (HEK293 cells [1]): 0.0%
- Absolute mRNA transfection efficiency in HEK293 cells (HEK293 cells [2]): 0.0%

Structure (SMILES): CCCCCCCCCCCCCCCCCCNc1nc(NCCCCCCCCCCCCCCC)nc(NCCCN(C)C)n1 [Compound N15N18D6]
- Absolute DNA transfection efficiency in HEK293 cells (HEK293 cells [1]): 0.6%
- Absolute mRNA transfection efficiency in HEK293 cells (HEK293 cells [2]): 8.6%

Structure (SMILES): CCCCCCCCCCCCCCCCCCNc1nc(NCCCCCCCCCCCCCCC)nc(NCCN(CC)CC)n1 [Compound N15N18D7]
- Absolute DNA transfection efficiency in HEK293 cells (HEK293 cells [1]): 3.2%
- Absolute mRNA transfection efficiency in HEK293 cells (HEK293 cells [2]): 8.3%

Structure (SMILES): CCCCCCCCCCCCCCCCCCNc1nc(NCCCCCCCCCCCCCCC)nc(NCCCN2CCOCC2)n1 [Compound N15N18D8]
- Absolute DNA transfection efficiency in HEK293 cells (HEK293 cells [1]): 0.9%
- Absolute mRNA transfection efficiency in HEK293 cells (HEK293 cells [2]): 0.0%

Structure (SMILES): CCCCCCCCCCCCCCCCCCNc1nc(NCCCCCCCCCCCCCCC)nc(NCCCN2CCN(C)CC2)n1 [Compound N15N18D9]
- Absolute DNA transfection efficiency in HEK293 cells (HEK293 cells [1]): 0.7%
- Absolute mRNA transfection efficiency in HEK293 cells (HEK293 cells [2]): 0.0%

Structure (SMILES): CCCCCCCCCCCCCCCCCCNc1nc(NCCCCCCCCCCCCCCC)nc(NCC2CCN(C)CC2)n1 [Compound N15N18D10]
- Absolute DNA transfection efficiency in HEK293 cells (HEK293 cells [1]): 3.5%
- Absolute mRNA transfection efficiency in HEK293 cells (HEK293 cells [2]): 7.4%

Structure (SMILES): CCCCCCCCCCCCCCCCNc1nc(NCCCCCCCCCCCCCCCC)nc(NCCN(C)C)n1 [Compound N16N16D1]
- Absolute DNA transfection efficiency in HEK293 cells (HEK293 cells [1]): 1.3%
- Absolute mRNA transfection efficiency in HEK293 cells (HEK293 cells [2]): 9.5%

Structure (SMILES): CCCCCCCCCCCCCCCCNc1nc(NCCCCCCCCCCCCCCCC)nc(NCCN2CCOCC2)n1 [Compound N16N16D2]
- Absolute DNA transfection efficiency in HEK293 cells (HEK293 cells [1]): 0.2%
- Absolute mRNA transfection efficiency in HEK293 cells (HEK293 cells [2]): 0.0%

Structure (SMILES): CCCCCCCCCCCCCCCCNc1nc(NCCCCCCCCCCCCCCCC)nc(NCCN2CCCC2)n1 [Compound N16N16D3]
- Absolute DNA transfection efficiency in HEK293 cells (HEK293 cells [1]): 1.4%
- Absolute mRNA transfection efficiency in HEK293 cells (HEK293 cells [2]): 2.8%

Structure (SMILES): CCCCCCCCCCCCCCCCNc1nc(NCCCCCCCCCCCCCCCC)nc(NCCN2CCCCC2)n1 [Compound N16N16D4]
- Absolute DNA transfection efficiency in HEK293 cells (HEK293 cells [1]): 0.9%
- Absolute mRNA transfection efficiency in HEK293 cells (HEK293 cells [2]): 0.0%

Structure (SMILES): CCCCCCCCCCCCCCCCNc1nc(NCCCCCCCCCCCCCCCC)nc(NCCN2CCN(C)CC2)n1 [Compound N16N16D5]
- Absolute DNA transfection efficiency in HEK293 cells (HEK293 cells [1]): 0.0%
- Absolute mRNA transfection efficiency in HEK293 cells (HEK293 cells [2]): 0.0%

Structure (SMILES): CCCCCCCCCCCCCCCCNc1nc(NCCCCCCCCCCCCCCCC)nc(NCCCN(C)C)n1 [Compound N16N16D6]
- Absolute DNA transfection efficiency in HEK293 cells (HEK293 cells [1]): 0.9%
- Absolute mRNA transfection efficiency in HEK293 cells (HEK293 cells [2]): 0.0%

Structure (SMILES): CCCCCCCCCCCCCCCCNc1nc(NCCCCCCCCCCCCCCCC)nc(NCCN(CC)CC)n1 [Compound N16N16D7]
- Absolute DNA transfection efficiency in HEK293 cells (HEK293 cells [1]): 0.0%
- Absolute mRNA transfection efficiency in HEK293 cells (HEK293 cells [2]): 7.9%

Structure (SMILES): CCCCCCCCCCCCCCCCNc1nc(NCCCCCCCCCCCCCCCC)nc(NCCCN2CCOCC2)n1 [Compound N16N16D8]
- Absolute DNA transfection efficiency in HEK293 cells (HEK293 cells [1]): 0.5%
- Absolute mRNA transfection efficiency in HEK293 cells (HEK293 cells [2]): 1.6%

Structure (SMILES): CCCCCCCCCCCCCCCCNc1nc(NCCCCCCCCCCCCCCCC)nc(NCCCN2CCN(C)CC2)n1 [Compound N16N16D9]
- Absolute DNA transfection efficiency in HEK293 cells (HEK293 cells [1]): 1.9%
- Absolute mRNA transfection efficiency in HEK293 cells (HEK293 cells [2]): 0.0%

Structure (SMILES): CCCCCCCCCCCCCCCCNc1nc(NCCCCCCCCCCCCCCCC)nc(NCC2CCN(C)CC2)n1 [Compound N16N16D10]
- Absolute DNA transfection efficiency in HEK293 cells (HEK293 cells [1]): 0.0%
- Absolute mRNA transfection efficiency in HEK293 cells (HEK293 cells [2]): 0.0%

Structure (SMILES): CCCCCCCCCCCCCCCCCCNc1nc(NCCCCCCCCCCCCCCCC)nc(NCCN(C)C)n1 [Compound N16N18D1]
- Absolute DNA transfection efficiency in HEK293 cells (HEK293 cells [1]): 1.2%
- Absolute mRNA transfection efficiency in HEK293 cells (HEK293 cells [2]): 0.0%

Structure (SMILES): CCCCCCCCCCCCCCCCCCNc1nc(NCCCCCCCCCCCCCCCC)nc(NCCN2CCOCC2)n1 [Compound N16N18D2]
- Absolute DNA transfection efficiency in HEK293 cells (HEK293 cells [1]): 1.2%
- Absolute mRNA transfection efficiency in HEK293 cells (HEK293 cells [2]): 0.0%

Structure (SMILES): CCCCCCCCCCCCCCCCCCNc1nc(NCCCCCCCCCCCCCCCC)nc(NCCN2CCCC2)n1 [Compound N16N18D3]
- Absolute DNA transfection efficiency in HEK293 cells (HEK293 cells [1]): 0.4%
- Absolute mRNA transfection efficiency in HEK293 cells (HEK293 cells [2]): 20.8%

Structure (SMILES): CCCCCCCCCCCCCCCCCCNc1nc(NCCCCCCCCCCCCCCCC)nc(NCCN2CCCCC2)n1 [Compound N16N18D4]
- Absolute DNA transfection efficiency in HEK293 cells (HEK293 cells [1]): 0.6%
- Absolute mRNA transfection efficiency in HEK293 cells (HEK293 cells [2]): 1.8%

Structure (SMILES): CCCCCCCCCCCCCCCCCCNc1nc(NCCCCCCCCCCCCCCCC)nc(NCCN2CCN(C)CC2)n1 [Compound N16N18D5]
- Absolute DNA transfection efficiency in HEK293 cells (HEK293 cells [1]): 1.1%
- Absolute mRNA transfection efficiency in HEK293 cells (HEK293 cells [2]): 0.0%

Structure (SMILES): CCCCCCCCCCCCCCCCCCNc1nc(NCCCCCCCCCCCCCCCC)nc(NCCCN(C)C)n1 [Compound N16N18D6]
- Absolute DNA transfection efficiency in HEK293 cells (HEK293 cells [1]): 0.0%
- Absolute mRNA transfection efficiency in HEK293 cells (HEK293 cells [2]): 4.4%

Structure (SMILES): CCCCCCCCCCCCCCCCCCNc1nc(NCCCCCCCCCCCCCCCC)nc(NCCN(CC)CC)n1 [Compound N16N18D7]
- Absolute DNA transfection efficiency in HEK293 cells (HEK293 cells [1]): 0.0%
- Absolute mRNA transfection efficiency in HEK293 cells (HEK293 cells [2]): 0.0%

Structure (SMILES): CCCCCCCCCCCCCCCCCCNc1nc(NCCCCCCCCCCCCCCCC)nc(NCCCN2CCOCC2)n1 [Compound N16N18D8]
- Absolute DNA transfection efficiency in HEK293 cells (HEK293 cells [1]): 0.0%
- Absolute mRNA transfection efficiency in HEK293 cells (HEK293 cells [2]): 1.0%
